Experimental data published in patent publication US5104492A, “Recovery of carboxylic acids from water by precipitation from organic solutions” (The Regents of the University of California, priority 1990, dated 1992).

What was measured:
[1] = Excerpt: An aqueous solution of fumaric acid was extracted with methyl isobutyl ketone (MIBK).
[2] = Solubility in MIBK plus 0.064 M tri-octyl/decyl amine; assay type: physicochemical
Excerpt: (§1) The use of MIBK plus 0.064 M tri-octyl/decyl amine as an organic phase was studied.

[3] = Solubility in butyl ether (Example 4 repeated); assay type: physicochemical
Excerpt: as §1
The experiment of Example 4 was repeated using butyl ether as organic solvent.

[4] = Solubility in octanol (Example 4 repeated); assay type: physicochemical
Excerpt: as §1
The experiment of Example 4 was repeated using octanol as organic solvent.

O=C(O)/C=C/C(=O)O [fumaric acid]
solubility relative to the level observed at saturation level of water [1]: less than 1/5th
amount of acid in MIBK extract ([1]; MIBK extract before stripping, […] by weight water): 0.0874 mol/L
solubility of the acid in the ketone ([1]; dry mibk): 15.8 mM
Acid Concentration ([2]; nearly anhydrous): 0.115 mol/L
Acid Concentration ([2]; water saturated): 0.158 mol/L
Acid Concentration ([3]; water 0.0005 moles/liter): 0.0023 mol/L
Acid Concentration ([3]; water 0.084 moles/liter): 0.0036 mol/L
Acid Concentration ([4]; water 0.066 moles/liter): 0.0614 mol/L
Acid Concentration ([4]; water 1.54 moles/liter): 0.0899 mol/L
Acid Concentration ([4]; water 2.24 moles/liter): 0.0961 mol/L
